Assay results from patent US20160046618A1, “Cyclopropyl Fused Thiazin-2-Amine Compounds as Beta-Secretase Inhibitors and Methods of Use” (AMGEN INC., priority 2014, published 2016).

Tests used:
human recombinant BACE1 = human recombinant BACE1 (Homo sapiens (Human), UniProt P56817); assay: In vitro enzymatic BACE1 FRET assay; format: biochemical; conditions: read-out: IC50 IP (μM) BACE1 enzyme
Procedure, shortened: (§1)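 Protease purified by Ni-NTA chromatography; start with FRET substrate (50 nM); incubate 1 h; quench with Tris to neutral pH; read fluorescence ex 488 / em 590 nm.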

human recombinant BACE2 = human recombinant BACE2 (Homo sapiens (Human), UniProt Q9Y5Z0); assay: In vitro enzymatic BACE2 FRET assay; format: biochemical; conditions: read-out: IC50 IP (μM) BACE2 enzyme
Procedure, shortened: as §1

[1] = system: Aβ40 in conditioned medium of cells stably expressing Amyloid Precursor Protein (APP); assay: In vitro BACE-1 cell-based assay (Aβ40 sandwich ELISA); conditions: read-out: IC50 IP (μM) BACE1 cell
Procedure, shortened: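 APP-expressing cells treated 24 h at 37 °C with compound in 10-point dose response (top 100 μM or 10 μM, 0.1% DMSO final). Secreted Aβ40 in conditioned medium quantified by sandwich ELISA (pAb40 capture, biotinylated 6E10 detection, time-resolved europium fluorescence); IC50 from percent inhibition versus concentration.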

Recombinant Cat D = Recombinant Cat D (Homo sapiens (Human), UniProt P07339); assay: In vitro enzymatic Cathepsin D (Cat D) FRET assay; format: biochemical; conditions: read-out: IC50 IP (μM) CatD
Procedure, shortened: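 Cleavage of a 20 nM fluorophore/quencher peptide by CHO-expressed recombinant Cat D proceeded for one hour at pH 3.5 (0.05 M citrate, 5 mM CHAPS, 10% DMSO final). Tris addition neutralized the pH to end the reaction. Fluorescence was then measured (ex 500 nm/em 580 nm).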

Sequence of Recombinant Cat D (P07339 65-412): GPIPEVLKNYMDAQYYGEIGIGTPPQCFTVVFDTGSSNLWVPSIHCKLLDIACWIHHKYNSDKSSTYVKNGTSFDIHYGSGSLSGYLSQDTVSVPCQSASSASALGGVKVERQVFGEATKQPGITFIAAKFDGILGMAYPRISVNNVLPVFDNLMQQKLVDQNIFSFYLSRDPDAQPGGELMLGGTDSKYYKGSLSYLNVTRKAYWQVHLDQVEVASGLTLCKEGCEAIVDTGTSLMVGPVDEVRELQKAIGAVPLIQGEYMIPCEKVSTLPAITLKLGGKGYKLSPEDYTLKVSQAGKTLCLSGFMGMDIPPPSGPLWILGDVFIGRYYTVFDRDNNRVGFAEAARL
Sequence of human recombinant BACE2 (Q9Y5Z0 63-518): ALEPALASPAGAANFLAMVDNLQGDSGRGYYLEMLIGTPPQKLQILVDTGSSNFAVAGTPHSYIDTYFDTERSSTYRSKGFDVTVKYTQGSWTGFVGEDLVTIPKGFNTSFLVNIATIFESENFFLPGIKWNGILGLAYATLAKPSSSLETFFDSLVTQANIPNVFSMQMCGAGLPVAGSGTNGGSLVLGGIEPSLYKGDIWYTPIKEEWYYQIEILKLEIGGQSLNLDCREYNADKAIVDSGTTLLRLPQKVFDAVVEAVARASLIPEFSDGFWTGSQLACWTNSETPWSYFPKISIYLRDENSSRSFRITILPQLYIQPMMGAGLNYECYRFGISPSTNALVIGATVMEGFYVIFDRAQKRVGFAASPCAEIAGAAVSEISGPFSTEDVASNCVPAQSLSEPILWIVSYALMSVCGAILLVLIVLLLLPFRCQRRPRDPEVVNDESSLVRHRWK
Sequence of human recombinant BACE1 (P56817 46-501): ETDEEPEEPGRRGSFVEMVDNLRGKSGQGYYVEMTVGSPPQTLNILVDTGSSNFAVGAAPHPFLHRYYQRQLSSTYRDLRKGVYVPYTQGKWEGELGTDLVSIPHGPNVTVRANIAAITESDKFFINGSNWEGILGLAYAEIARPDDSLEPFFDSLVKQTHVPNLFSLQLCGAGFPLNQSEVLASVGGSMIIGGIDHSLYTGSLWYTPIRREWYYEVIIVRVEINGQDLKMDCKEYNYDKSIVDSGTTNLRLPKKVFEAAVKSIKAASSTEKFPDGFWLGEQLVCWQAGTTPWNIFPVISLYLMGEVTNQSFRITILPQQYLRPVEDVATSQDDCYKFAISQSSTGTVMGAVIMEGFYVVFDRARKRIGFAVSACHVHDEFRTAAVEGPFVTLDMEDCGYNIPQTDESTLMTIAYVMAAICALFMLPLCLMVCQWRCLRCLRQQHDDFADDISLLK

SMILES	IC50 (human recombinant BACE1) [nM]	IC50 (human recombinant BACE2) [µM]	IC50 [1] [µM]	IC50 (Recombinant Cat D) [µM]
COC[C@H](C)Oc1cnc(C(=O)Nc2ccc(F)c([C@@]3(C)N=C(N)S[C@@]4(C(=O)NC5CC5)C[C@H]43)c2)cn1 [Example 1001, (1S,5S,6S)-3-amino-N-cyclopropyl-5-(2-fluoro-5-(((5-((1S)-2-methoxy-1-methylethoxy)-2-pyrazinyl)carbonyl)amino)phenyl)-5-methyl-2-thia-4-azabicyclo[4.1.0]hept-3-ene-1-carboxamide]	0.059	0.356	0.00589	492
CC(C)(C)NC(=O)[C@]12C[C@H]1[C@@](C)(c1cc(NC(=O)c3cnc(OCC(F)(F)F)cn3)ccc1F)N=C(N)S2 [Example 1002, (1S,5S,6S)-3-amino-N-tert-butyl-5-(2-fluoro-5-(((5-(2,2,2-trifluoroethoxy)-2-pyrazinyl)carbonyl)amino)phenyl)-5-methyl-2-thia-4-azabicyclo[4.1.0]hept-3-ene-1-carboxamide]	1.77	0.165	0.00484	82.7
COC[C@H](C)Oc1cnc(C(=O)Nc2ccc(F)c([C@@]3(C)N=C(N)S[C@@]4(C(=O)NC(C)(C)C)C[C@H]43)c2)cn1 [Example 1003, (1S,5S,6S)-3-amino-N-tert-butyl-5-(2-fluoro-5-(((5-((1S)-2-methoxy-1-methylethoxy)-2-pyrazinyl)carbonyl)amino)phenyl)-5-methyl-2-thia-4-azabicyclo[4.1.0]hept-3-ene-1-carboxamide]	5.65	0.48	0.021	297
C#CCOc1cnc(C(=O)Nc2cc(F)c(F)c([C@@]3(C)N=C(N)S[C@@]4(C(=O)N5CCOCC5)C[C@H]43)c2)cn1 [Example 1004, N-(3-((1S,5S,6S)-3-amino-5-methyl-1-(morpholine-4-carbonyl)-2-thia-4-azabicyclo[4.1.0]hept-3-en-5-yl)-4,5-difluorophenyl)-5-(prop-2-yn-1-yloxy)pyrazine-2-carboxamide]	0.1	0.00235	0.000324	14.9
C#CCOc1cnc(C(=O)Nc2ccc(F)c([C@@]3(C)N=C(N)S[C@@]4(C(=O)N5CCOCC5)C[C@H]43)c2)cn1 [Example 1005, N-(3-((1S,5S,6S)-3-amino-5-methyl-1-(morpholine-4-carbonyl)-2-thia-4-azabicyclo[4.1.0]hept-3-en-5-yl)-4-fluorophenyl)-5-(prop-2-yn-1-yloxy)pyrazine-2-carboxamide]	0.384	0.00516	0.00108	72.1
C#CCOc1cnc(C(=O)Nc2ccc(F)c([C@@]3(C)N=C(N)S[C@@]4(C(=O)NC(C)(C)CF)C[C@H]43)c2)cn1 [Example 1006, (1S,5S,6S)-3-amino-N-(1-fluoro-2-methylpropan-2-yl)-5-(2-fluoro-5-(5-(prop-2-yn-1-yloxy)pyrazine-2-carboxamido)phenyl)-5-methyl-2-thia-4-azabicyclo[4.1.0]hept-3-ene-1-carboxamide]	0.885	0.0213	0.000575	7.08
COC[C@]12C[C@H]1[C@@](C)(c1cc(NC(=O)c3cnc(Cl)cn3)cc(F)c1F)N=C(N)S2 [Example 1007]	7.02	0.00484	0.73	460
COC[C@]12C[C@H]1[C@@](C)(c1cc(NC(=O)c3cnc(OCc4nc(C)no4)cn3)ccc1F)N=C(N)S2 [Example 1008, N-(3-((1S,5S,6S)-3-amino-1-(methoxymethyl)-5-methyl-2-thia-4-azabicyclo[4.1.0]hept-3-en-5-yl)-4-fluorophenyl)-5-((3-methyl-1,2,4-oxadiazol-5-yl)methoxy)-2-pyrazinecarboxamide]	4.71	0.195	0.0022	> 400
C#C[C@H](C)Oc1cnc(C(=O)Nc2cc(F)c(F)c([C@@]3(C)N=C(N)S[C@@]4(COC)C[C@H]43)c2)cn1 [Example 1009, N-(3-((1S,5S,6S)-3-amino-1-(methoxymethyl)-5-methyl-2-thia-4-azabicyclo[4.1.0]hept-3-en-5-yl)-4,5-difluorophenyl)-5-(((1S)-1-methyl-2-propyn-1-yl)oxy)-2-pyrazinecarboxamide]	0.695	0.0436	0.00254	936
COC[C@H](C)Oc1cnc(C(=O)Nc2cc(F)c(F)c([C@@]3(C)N=C(N)S[C@@]4(C#N)C[C@H]43)c2)cn1 [Example 1010, N-(3-((1S,5S,6S)-3-amino-1-cyano-5-methyl-2-thia-4-azabicyclo[4.1.0]hept-3-en-5-yl)-4,5-difluorophenyl)-5-(((S)-1-methoxypropan-2-yl)oxy)pyrazine-2-carboxamide]	3.2	0.0669	0.0309	> 400
C#C[C@H](C)Oc1cnc(C(=O)Nc2cc(F)c(F)c([C@@]3(C)N=C(N)S[C@@]4(C#N)C[C@H]43)c2)cn1 [Example 1011, N-(3-((1S,5S,6S)-3-amino-1-cyano-5-methyl-2-thia-4-azabicyclo[4.1.0]hept-3-en-5-yl)-4,5-difluorophenyl)-5-(((1S)-1-methyl-2-propyn-1-yl)oxy)-2-pyrazinecarboxamide]	0.465	0.00908	0.00353	741
C[C@]1(c2cc(NC(=O)c3ccc(OCC(F)(F)F)cn3)cc(F)c2F)N=C(N)S[C@@]2(C#N)C[C@H]21 [Example 1012, N-(3-((1S,5S,6S)-3-amino-1-cyano-5-methyl-2-thia-4-azabicyclo[4.1.0]hept-3-en-5-yl)-4,5-difluorophenyl)-5-(2,2,2-trifluoroethoxy)-2-pyridinecarboxamide]	3.99	0.095	0.111	> 400
COC[C@]12C[C@H]1[C@@](C)(c1cc(NC(=O)c3cnc(OCc4noc(C)n4)cn3)cc(F)c1F)N=C(N)S2 [Example 1013, N-(3-((1S,5S,6S)-3-amino-1-(methoxymethyl)-5-methyl-2-thia-4-azabicyclo[4.1.0]hept-3-en-5-yl)-4,5-difluorophenyl)-5-((5-methyl-1,2,4-oxadiazol-3-yl)methoxy)-2-pyrazinecarboxamide]	1.39	0.0541	0.00144	959
COC[C@]12C[C@H]1[C@@](C)(c1cc(NC(=O)c3cnc(OCc4nc(C)no4)cn3)cc(F)c1F)N=C(N)S2 [Example 1014, N-(3-((1S,5S,6S)-3-amino-1-(methoxymethyl)-5-methyl-2-thia-4-azabicyclo[4.1.0]hept-3-en-5-yl)-4,5-difluorophenyl)-5-((3-methyl-1,2,4-oxadiazol-5-yl)methoxy)-2-pyrazinecarboxamide]	0.879	0.192	0.00289	2560
Cc1cc(OCC(F)(F)F)cnc1C(=O)Nc1cc(F)c(F)c([C@@]2(C)N=C(N)S[C@@]3(C#N)C[C@H]32)c1 [Example 1015, N-(3-((1S,5S,6S)-3-amino-1-cyano-5-methyl-2-thia-4-azabicyclo[4.1.0]hept-3-en-5-yl)-4,5-difluorophenyl)-3-methyl-5-(2,2,2-trifluoroethoxy)-2-pyridinecarboxamide]	4.97	0.185	0.00686	> 400
C#CCOc1cnc(C(=O)Nc2cc(F)c(F)c([C@@]3(C)N=C(N)S[C@@]4(C#N)C[C@H]43)c2)c(C)c1 [Example 1016, N-(3-((1S,5S,6S)-3-amino-1-cyano-5-methyl-2-thia-4-azabicyclo[4.1.0]hept-3-en-5-yl)-4,5-difluorophenyl)-3-methyl-5-(2-propyn-1-yloxy)-2-pyridinecarboxamide]	1.04	0.00764	0.0119	> 400
C#CCOc1cnc(C(=O)Nc2ccc(F)c([C@@]3(C)N=C(N)S[C@@]4(C(=O)NCC)C[C@H]43)c2)cn1 [Example 1017, (1S,5S,6S)-3-amino-N-ethyl-5-(2-fluoro-5-(5-(prop-2-yn-1-yloxy)pyrazine-2-carboxamido)phenyl)-5-methyl-2-thia-4-azabicyclo[4.1.0]hept-3-ene-1-carboxamide]	0.266	0.00982	0.000106	22.5
CC(C)(CF)NC(=O)[C@]12C[C@H]1[C@@](C)(c1cc(NC(=O)c3ccc(C#N)cn3)ccc1F)N=C(N)S2 [Example 1018, (1S,5S,6S)-3-amino-5-(5-(5-cyanopicolinamido)-2-fluorophenyl)-N-(1-fluoro-2-methylpropan-2-yl)-5-methyl-2-thia-4-azabicyclo[4.1.0]hept-3-ene-1-carboxamide]	1.16	0.00651	0.00113	211
C#C[C@H](C)Oc1cnc(C(=O)Nc2ccc(F)c([C@@]3(C)N=C(N)S[C@@]4(C(=O)NC(C)(C)CF)C[C@H]43)c2)cn1 [Example 1019, (1S,5S,6S)-3-amino-5-(5-(5-((S)-but-3-yn-2-yloxy)pyrazine-2-carboxamido)-2-fluorophenyl)-N-(1-fluoro-2-methylpropan-2-yl)-5-methyl-2-thia-4-azabicyclo[4.1.0]hept-3-ene-1-carboxamide]	0.937	0.073	0.00109	271
